Where no end group is shown, it is not given here.
System: hMSCs
Assay: Loss of stemness: STRO-1 expression by immunostaining
Type: cell-based, human
Description: The cells were first fixed for 20 min with 4% paraformaldehyde/PBS at 4° C. After fixation, the cells were permeabilized in PBS containing 1% Triton X-100 for 15 min. Runx2, Osterix, Stro-1, Vinculin, Phalloidin, Osteopontin, Sox2, Sox9 antibodies were visualized by treating the cells with 1% (v/v) specific monoclonal antibodies for 1 hour at 37° C. Then the samples were incubated with Alexa Fluor® 568 or 647 (F(ab′)2 fragment of IgG(H+L)) during 30 min at room temperature. The cell nuclei were counterstained in 20 ng/mL DAPI for 10 min at room temperature.
For this type of quantification the freeware image analysis ImageJ® software was used. The raw image was first converted to an 8-bit file, and then the unsharp mask feature was used (settings 1:0.2) to remove the image background (rolling ball radius 10). After smoothing, the resulting image, which appears similar to the original photomicrograph but with minimal background, was then converted to a binary image by setting a threshold. Threshold values were determined empirically by selecting a setting, which gave the most accurate binary image for a subset of randomly selected photomicrographs. The cell area was determined by manual delineation on raw fluorescent images. Total contact area and mean contact area per cell were calculated by “analyse particules” in ImageJ®. A minimum of 30 cells per condition were analyzed. Stro-1, CD-34+, and CD-105 expressions were determined using this procedure.
hMSCs were cultured on conventional cell culture plastic plates with or without the presence in the cell culture media of different GFR-binding compounds as described herein (SEQ ID NO: 50 to 88) in solution. […] This was probed by Stro-1 immunostaining after cell fixation as described in the Methods section. The quantification of Stro-1 positive contact numbers and areas was performed as described in the Methods section. A minimum of 30 cells per condition were analyzed. Stro-1 positive marrow cells are multipotential and capable of differentiating into multiple mesenchymal lineages including stromal cells with a phenotype resembling vascular smooth muscle cells that can support hematopoiesis, adipocytes, osteoblasts, and chondrocytes.
Using the method detailed in the description, the RMSD of 57 previously reported peptide sequences have been determined (Table 6) and correlated with the expression of STRO-1 in solution. […] One should note that it is commonly admitted that the expression of STRO-1 in a cell is indicative of a cell that is in a substantially non-differentiated state and the decrease of its expression of at least about 20% is indicative of a cell that has started a process of differentiation but which may not result in the differentiation of the cell. A decrease of more than 50% would be indicative of the presence of a significant shift towards a differentiated state. A decrease of more than 70% would be indicative of the presence of a very important shift towards a differentiated state. A sustained decrease (e.g. for at least 96 h) of more than 50% or 70% would be indicative of the presence of an even more important shift towards a differentiated state.
Likewise, using the method detailed in the description, the RMSD of 75 GFR-binding peptide sequence representatives of the invention have been determined (Table 8) and correlated with the expression of STRO-1. SEQ ID NO: 1 to 49 were tested in combination with a bioactive carrier as defined above in the Examples Section (i.e. titanium, ceramics, collagen, etc. . . . ), whereas SEQ ID NO: 2242 to 2267 were tested in solution.

[1] = Table 8, SEQ ID NO: 1 to 49 tested in combination with a bioactive carrier (titanium, ceramics, collagen, etc.)
[2] = Table 6, previously reported peptides in solution, 400 ng/mL
[3] = Table 8, SEQ ID NO: 2242 to 2267 tested in solution

Substance | STRO-1 expression (%) [1] | STRO-1 expression (%) [2] | further results
17 (CASAAPSSVPQKLNAISMLYFVGRKPKVLKKYRMIVRS; not fully specified; ends and bridges not checked) [compound 17] | 21% | – | –
2178 (SPISILVVPELDASLPEKRPSLDGFEALLVYNAPKA; Peptide reported in US20120246748, SEQ ID NO:119912) [compound 2178] | – | 82% | –
2267 (ASASPSSVSQDLRSVKVAKVIGKTPKIKEVQVMIVKSSKSS; GFR-binding peptide) [compound 2267] | – | – | STRO-1 expression (%) [3]: 34%
2210 (SRVLPIVVQGYVPVQDTKFLGIYYVIGPIIARVILSSSSAISSLNKS; Peptide reported in US20040031072, SEQ ID NO:188005) [compound 2210] | – | 84% | –
2162 (ENVNLKKYRNMIVKSCGCH; Peptide reported in US20040039543, SEQ ID NO:107) [compound 2162] | – | 97% | –
33 (WWFWGASSAVSQELSAISMLYLGGGLKNYQDMQHN; GFR-binding peptide) [compound 33] | 28% | – | –
2159 (PIIYYVGRNVRVEQLSNMVVRA; Peptide reported in US5436228, SEQ ID NO:14) [compound 2159] | – | 92% | –
2211 (CCAPTELSAISVLYFDDSSNVILKKYRNMVVRACGCR; Comparative sequence) [compound 2211] | – | 81% | –
2 (CKVGKASSVPTKLSAISTLYLDDMGVPTLKNYQNMVVRASGSH; not fully specified; ends and bridges not checked) [compound 2] | 21% | – | –
2250 (VPTVVSPISMLYIDDMGVPTYKQYEVVVVE; GFR-binding peptide) [compound 2250] | – | – | STRO-1 expression (%) [3]: 26%
2251 (APVAAKPLSMLYVDKGVVTYDHHKDAAVEE; GFR-binding peptide) [compound 2251] | – | – | STRO-1 expression (%) [3]: 22%
2262 (HVTKPTSVPTKLSPISILFIDDSSNVIYKQYENMVVESSGSH; GFR-binding peptide) [compound 2262] | – | – | STRO-1 expression (%) [3]: 18%
2263 (ASASPSSAPVDLKPLSMLYVIGKTPKIDHHKDMIVEESKSS; GFR-binding peptide) [compound 2263] | – | – | STRO-1 expression (%) [3]: 16%
19 (CPKPSSAPTQLSAISTLYLDDSSNVILKNYQMIVVRA; GFR-binding peptide) [compound 19] | 20% | – | –
2213 (KPCCAPTQLSAISVLYFDDSSNVILKKYRNMVVRACGCR; Peptide reported in US20050250936, SEQ ID NO:123) [compound 2213] | – | 80% | –
2254 (VPTMMSNITTQIMRIKPHQGQHIGEMSMMQHN; GFR-binding peptide) [compound 2254] | – | – | STRO-1 expression (%) [3]: 19%
36 (CKIPKASSVPTELEPLPIVYYVGRKPKVEQLSNMIVRS; not fully specified; ends and bridges not checked) [compound 36] | 19% | – | –
2192 (SFRTARANAPTGRSSLSGEKEQQEASTHS; Peptide reported in WO2013040142, SEQ ID NO:3136558) [compound 2192] | – | 91% | –
25 (GTPGPAPTQLSPISVLYKDDSSNVILKYHY; GFR-binding peptide) [compound 25] | 23% | – | –
2177 (VPTKLEPISVLYKDDMGVPTLKYHYEGMAVSECGCR; Peptide reported in US8969040, SEQ ID NO:89) [compound 2177] | – | 81% | –
46 (CPARLSPISLLYIDAANNVVYKQYEDM; GFR-binding peptide) [compound 46] | 19% | – | –
2180 (VPTKLSPISILYLDKGVVTYKFKYEGMSVAECGCR; Peptide reported in US8969040, SEQ ID NO:90) [compound 2180] | – | 80% | –
2256 (VPTDDSATSTLYYDKGVVTYLRKHRDDEHS; GFR-binding peptide) [compound 2256] | – | – | STRO-1 expression (%) [3]: 27%

Substance | STRO-1 expression (%) [1] | STRO-1 expression (%) [2] | further results
16 (CKASSVPTELSPISTLYKDENEKVVLKYHYDMVVEGSGSR; not fully specified; ends and bridges not checked) [compound 16] | 18% | – | –
2173 (TKPLSSLLFPNWNTTTTPTPPRP; Peptide reported in WO2013040142, SEQ ID NO:866827) [compound 2173] | – | 91% | –
45 (CAAPASSSVPARLSPISLLYIDAANNVVYKQYEDM; not fully specified; ends and bridges not checked) [compound 45] | 24% | – | –
10 (CPSSAPTQLSATSVLYYDDSSNVILRKHRQHNK; GFR-binding peptide) [compound 10] | 19% | – | –
2255 (SRVAARSVKMAKVGGGGGGGKEVQVAAEEH; GFR-binding peptide) [compound 2255] | – | – | STRO-1 expression (%) [3]: 31%
2167 (LNEVLRFCGIQVPEGDEPLTY; Peptide reported in WO2013040142, SEQ ID NO:89702) [compound 2167] | – | 99% | –
11 (CPKPSSAPTQLNAISMLYFGGGGGGGLKKYRNMVVRA; GFR-binding peptide) [compound 11] | 31% | – | –
2245 (APTLLNAISMLYFNDKQQIILKKYRLLVVR; GFR-binding peptide) [compound 2245] | – | – | STRO-1 expression (%) [3]: 22%
2165 (LMDLARMPSCLRGERAVPQDTTGYFTWSSNITPLNFIF; Peptide reported in US20110300149, SEQ ID NO:32) [compound 2165] | – | 92% | –
2196 (MAAQDEWRDAITLTMGRDLKKVPQHLNAISVIDPVT; Peptide reported in US20120246748, SEQ ID NO:111359) [compound 2196] | – | 83% | –
49 (CTVPKPXXAPTQLSPISILYIDAANNVVYKQYEDMVVRA; GFR-binding peptide; MOD_RES (7), (8): Xaa is C or S) [compound 49] | 18% | – | –
28 (GTPGPAPTKLSAISMLYLDSSNNVILKKYR; GFR-binding peptide) [compound 28] | 19% | – | –
2193 (DKPEESSSTPTHAQCICSSLSEAIVSSVLSTRLVLSQISLTRAKRAFE; Peptide reported in US20130333061, SEQ ID NO:139889) [compound 2193] | – | 87% | –
35 (GTPGPRNVQCRPTQVQLSAISTLYLAAALKNYQTLE; GFR-binding peptide) [compound 35] | 28% | – | –
21 (CGGGSSVPTELSAISTLYLDDYDKVILKKYRNM; GFR-binding peptide) [compound 21] | 14% | – | –
2202 (CPKPSSAPTELSAISMLL; Peptide reported in WO2009151288, SEQ ID NO:3) [compound 2202] | – | 79% | –
2168 (MSRVLFEPLTFLQTGSGLPDEKTLG; Peptide reported in US20080081768, SEQ ID NO:28800) [compound 2168] | – | 94% | –
2185 (LGIAAIIFLQQVPAAFSATSPPG; Peptide reported in WO2013040142, SEQ ID NO:1139935) [compound 2185] | – | 97% | –
34 (GTPGPRNVQCRPTQVQLSAISTLYLEIVRKKPLKNYQTLEDH; GFR-binding peptide) [compound 34] | 18% | – | –
2171 (SHQSAGDSIKSPARHSAPTHQEPLPD; Peptide reported in WO2013040142, SEQ ID NO:3137100) [compound 2171] | – | 91% | –
27 (GTPGPAPTKLSAISMLYLDSSNNVILRKHR; GFR-binding peptide) [compound 27] | 19% | – | –
2163 (TPTYSRPVQKAELTR; Peptide reported in US20130332133, SEQ ID NO:16645) [compound 2163] | – | 97% | –
2181 (VPTKLSPISILYKDDMGVPTYKFKYEGMSVAECGCR; Peptide reported in US20140056902, SEQ ID NO:88) [compound 2181] | – | 82% | –

Reference: patent US20220267394A1, “COMPOUNDS FOR INDUCING TISSUE FORMATION AND USES THEREOF” (HISTIDE AG, priority 2015, published 2022)
